Assay results taken from PubChem BioAssay (NCI).
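Exposure lasted 48 hours, with cells grown in 96-well plates and compounds tested at five concentrations. Definition used: TGI = concentration required for complete inhibition of growth.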

Key:
Test in all cases: growth of human tumour cells (NCI), 48 h
786-0 renal = test system: 786-0 renal
ACHN renal = test system: ACHN renal
BT-549 breast = test system: BT-549 breast
COLO 205 colon = test system: COLO 205 colon
EKVX NSCLC = test system: EKVX NSCLC
M14 melanoma = test system: M14 melanoma
MDA-N = test system: MDA-N
NCI-H460 lung = test system: NCI-H460 lung
NCI-H522 lung = test system: NCI-H522 lung
OVCAR-8 ovarian = test system: OVCAR-8 ovarian
SN12C renal = test system: SN12C renal
T-47D breast = test system: T-47D breast
UO-31 renal = test system: UO-31 renal
PC-3 prostate = test system: PC-3 prostate
SK-OV-3 ovarian = test system: SK-OV-3 ovarian
UACC-62 melanoma = test system: UACC-62 melanoma

Row | Structure (SMILES) | TGI (786-0 renal) | TGI (ACHN renal) | TGI (BT-549 breast) | TGI (COLO 205 colon) | TGI (EKVX NSCLC) | TGI (M14 melanoma) | TGI (MDA-N) | TGI (NCI-H460 lung) | TGI (NCI-H522 lung) | TGI (OVCAR-8 ovarian) | TGI (SN12C renal) | TGI (T-47D breast) | TGI (UO-31 renal) | TGI (PC-3 prostate) | TGI (SK-OV-3 ovarian) | TGI (UACC-62 melanoma)
1 | Cc1ccc(-c2c3nc(c(-c4ccc(C)cc4)c4ccc([nH]4)c(-c4ccc(OCC5COC(C)(C)O5)cc4)c4nc(c(-c5ccc(C)cc5)c5ccc2[nH]5)C=C4)C=C3)cc1 (configuration not stated) | > 31.6 µM | > 31.6 µM | > 100 µM | > 31.6 µM | > 31.6 µM | > 31.6 µM | > 31.6 µM | > 31.6 µM | > 31.6 µM | > 31.6 µM | > 31.6 µM | > 31.6 µM | > 31.6 µM | – | – | –
2 | CN(C)/C=N/S(=O)(=O)c1nn2c(C=O)c(-c3ccc(Cl)cc3)nc2s1 | 2.5 µM | 2.36 µM | 2.83 µM | 2.81 µM | 12.7 µM | 2.17 µM | – | 22.4 µM | 2.12 µM | 3.2 µM | 5.94 µM | 3.36 µM | 2.18 µM | 9.38 µM | 29.5 µM | 14.3 µM
3 | CCO/N=C(/N)c1ncn(Cc2ccccc2)c1NCC(OCC)OCC | > 100 µM | > 100 µM | – | > 100 µM | > 100 µM | > 100 µM | – | > 100 µM | > 100 µM | > 100 µM | > 100 µM | – | > 100 µM | – | > 100 µM | > 100 µM
4 | CC1(C)CC(=O)C(/C=N/c2nc(-c3ccccc3)cs2)=C(O)C1 | > 100 µM | > 100 µM | – | > 100 µM | > 100 µM | > 100 µM | > 100 µM | > 100 µM | – | > 100 µM | > 100 µM | > 100 µM | > 100 µM | > 100 µM | > 100 µM | –
5 | COC1(OC)CC(CO)(CNc2nc(N)nc(Cl)c2/C=N\O)C1 | > 100 µM | > 100 µM | > 100 µM | > 100 µM | > 100 µM | – | > 100 µM | > 100 µM | > 100 µM | > 100 µM | > 100 µM | – | > 100 µM | > 100 µM | – | –
6 | CC(=NNC(=S)Nc1ccc(C)cc1)c1cccc(C(C)=NNC(=S)Nc2ccc(C)cc2)n1 | > 100 µM | 95.2 µM | – | 43.8 µM | > 100 µM | 47.7 µM | > 100 µM | > 100 µM | 63.7 µM | 34.5 µM | > 100 µM | > 100 µM | > 100 µM | > 100 µM | 97.6 µM | > 100 µM
7 | O=C(Nc1ccc(Cl)cc1Cl)C(=O)C(C(=O)c1ccncc1)C1OC(=O)c2ccccc21 (configuration not stated) | > 100 µM | > 100 µM | – | > 100 µM | > 100 µM | > 100 µM | – | > 100 µM | > 100 µM | > 100 µM | > 100 µM | – | > 100 µM | – | > 100 µM | > 100 µM
8 | CC(=O)OC1(C)C=CC(=O)C=C1 | 47.9 µM | 34.7 µM | > 100 µM | > 100 µM | > 100 µM | > 100 µM | > 100 µM | 79.5 µM | 24.2 µM | > 100 µM | > 100 µM | – | 46.4 µM | > 100 µM | > 100 µM | 35.7 µM
